Among the test systems are ACHN renal; HL-60(TB) leukemia; NCI-H460 lung; NCI-H522 lung; SK-MEL-28 melanoma; SN12C renal; T-47D breast; TK-10 renal; UACC-257 melanoma; UACC-62 melanoma.
What all share (assay): NCI-60 cell line screen, 48 h

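How tested: cells in 96-well plates exposed to compound for 48 hours at five concentrations. At the GI50, growth is halved. Definition used: TGI = concentration required for complete inhibition of growth.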

Consider `COc1cnc2c(c1)C(=O)c1c-2n(CCCNC(C)C)c(=O)c2cc(F)ccc12`, for which the GI50 in the assay with ACHN renal is 0.0565 µM; in the assay on HL-60(TB) leukemia, 0.161 µM; in the assay with NCI-H460 lung it was 0.042 µM; in the assay on NCI-H522 lung, 0.0385 µM; in the assay with SK-MEL-28 melanoma, 0.94 µM; in the assay on SN12C renal, 0.164 µM. Also, the GI50 with T-47D breast was 0.0846 µM; with TK-10 renal, 0.178 µM; with UACC-257 melanoma it was 0.47 µM; with UACC-62 melanoma it was 0.271 µM. Moreover, the TGI in the assay on ACHN renal was 0.229 µM; in the assay with HL-60(TB) leukemia, 0.615 µM; in the assay with NCI-H460 lung, 0.175 µM; with NCI-H522 lung it was 0.376 µM; with SK-MEL-28 melanoma it was 2.51 µM; in the assay on SN12C renal, 0.831 µM. Moreover, the TGI stood at 0.651 µM in the assay with T-47D breast, 0.623 µM in the assay with TK-10 renal, 2.07 µM in the assay with UACC-257 melanoma and 1.27 µM in the assay on UACC-62 melanoma.

Turning to `CC1=C([Te]c2ccc(O)cc2)C(=O)c2ccccc2C1=O`, the GI50 with ACHN renal is 1.54 µM; in the assay on HL-60(TB) leukemia, 1.83 µM; in the assay with NCI-H460 lung, 0.347 µM; in the assay with NCI-H522 lung, 2.16 µM; in the assay with SK-MEL-28 melanoma, 2.41 µM; in the assay with SN12C renal it was 2.29 µM. Moreover, the GI50 is 1.1 µM in the assay on T-47D breast, 2.67 µM in the assay with TK-10 renal, 2.91 µM in the assay with UACC-257 melanoma and 1.6 µM in the assay with UACC-62 melanoma. In addition, the TGI in the assay with ACHN renal came out at 3.85 µM; in the assay with HL-60(TB) leukemia it was 5 µM; with NCI-H460 lung, 1.62 µM; in the assay on NCI-H522 lung it was 7.31 µM; in the assay on SK-MEL-28 melanoma, 6.09 µM; in the assay on SN12C renal it was 9.33 µM. Besides, the TGI with T-47D breast came out at 3.25 µM; with TK-10 renal it was 7.6 µM; with UACC-257 melanoma it was 10.4 µM; with UACC-62 melanoma it was 4.01 µM.

`COc1cc(-c2nn(-c3cccc(NC(=O)c4ccc(N5CCOCC5)c(C(F)(F)F)c4)c3)cc2-c2ccncc2)ccc1Cl`: the GI50 in the assay on ACHN renal is 0.585 µM; in the assay with HL-60(TB) leukemia, 0.233 µM; in the assay on NCI-H460 lung, 0.299 µM; with NCI-H522 lung, 0.0606 µM; with SK-MEL-28 melanoma, 0.936 µM; with SN12C renal it was 0.709 µM. Also, the GI50 with T-47D breast is 0.471 µM; in the assay with TK-10 renal, 1.22 µM; with UACC-257 melanoma, 0.496 µM; in the assay with UACC-62 melanoma it was 0.207 µM. The TGI with ACHN renal is more than 100 µM; with NCI-H460 lung, more than 20.4 µM; in the assay on NCI-H522 lung, 0.915 µM; in the assay on SK-MEL-28 melanoma, more than 84.8 µM; in the assay on SN12C renal, more than 75.8 µM; in the assay with T-47D breast, more than 28.9 µM. Also, the TGI turned out to be 19.5 µM in the assay on TK-10 renal, 6.86 µM in the assay on UACC-257 melanoma and 7.07 µM with UACC-62 melanoma.

In the case of `C=C(C)[C@@H]1CC[C@]2(CO)CC[C@]3(C)[C@H](CC[C@@H]4[C@@]5(C)CCC(NCCc6ccc(O)cc6)C(C)(C)[C@@H]5CC[C@]43C)[C@@H]12` (some centres undefined), the GI50 in the assay with ACHN renal was 1.62 µM; in the assay with HL-60(TB) leukemia, 1.49 µM; in the assay on NCI-H460 lung, 1.53 µM; with NCI-H522 lung it was 1.72 µM; in the assay with SK-MEL-28 melanoma it was 1.58 µM; with SN12C renal it was 1.67 µM. For the same compound, the GI50 was 1.51 µM in the assay on T-47D breast, 1.65 µM with TK-10 renal, 1.73 µM in the assay with UACC-257 melanoma and 1.63 µM in the assay on UACC-62 melanoma. The TGI with ACHN renal was found to be 2.97 µM; in the assay on HL-60(TB) leukemia, 3.67 µM; with NCI-H460 lung it was 3 µM; with NCI-H522 lung, 3.33 µM; with SK-MEL-28 melanoma it was 3 µM; with SN12C renal, 3.19 µM. For the same compound, the TGI was 3.19 µM in the assay on T-47D breast, 3.13 µM in the assay on TK-10 renal, 3.37 µM in the assay on UACC-257 melanoma and 3.09 µM in the assay with UACC-62 melanoma.

Regarding `COc1ccc2c(c1OC)OCC(CN(C)C)C2=O` (centres undefined), the TGI in the assay with ACHN renal was 31.7 µM; in the assay with HL-60(TB) leukemia, 7.14 µM; in the assay with NCI-H460 lung it was more than 66.6 µM; in the assay on NCI-H522 lung, 0.472 µM; in the assay with SK-MEL-28 melanoma, 32.3 µM; with SN12C renal, 34 µM. For the same compound, the TGI in the assay with T-47D breast is more than 62.2 µM; in the assay with TK-10 renal, 34.4 µM; in the assay on UACC-257 melanoma, 30.8 µM; with UACC-62 melanoma, 32.1 µM.

As for `C[C@H]1[C@H]2[C@H]3CC[C@@H]4[C@@]5(C)C/C(=C/c6cccnc6)C(=O)C(C)(C)[C@@H]5CC[C@@]4(C)[C@]3(C)CC[C@]23CO[C@]1(C)[C@@H](C(=O)/C=C\c1cccnc1)C3`, the GI50 was 1.49 µM with ACHN renal; 0.794 µM in the assay with HL-60(TB) leukemia; 0.929 µM with NCI-H460 lung; 1.15 µM in the assay on NCI-H522 lung; 1.02 µM in the assay with SK-MEL-28 melanoma; 1.1 µM in the assay on SN12C renal. Further, the GI50 in the assay on T-47D breast is 1.98 µM; with TK-10 renal it was 1.72 µM; with UACC-257 melanoma it was 1.74 µM; in the assay on UACC-62 melanoma it was 0.67 µM. For the same compound, the TGI in the assay with ACHN renal was 4.81 µM; in the assay on HL-60(TB) leukemia it was 2.53 µM; with NCI-H460 lung it was 1.94 µM; with NCI-H522 lung it was 3.07 µM; in the assay with SK-MEL-28 melanoma, 2.2 µM; in the assay on SN12C renal, more than 11.8 µM. In addition, the TGI with T-47D breast was more than 50 µM; in the assay on TK-10 renal, 8.21 µM; in the assay on UACC-257 melanoma, 9.85 µM; in the assay with UACC-62 melanoma, 1.67 µM.

(Values after PubChem BioAssay (NCI).)
